# Results as given in patent publication US11642320B2, “Nanoparticulate prodrugs” (priority 2016, dated 2023).
# Assays:
# [1] = tested on: pro-inflammatory cytokine release, raw264.7 cells; experiment: Control cytokine release assay without LPS treatment; assay type: cell-based, mouse; settings: raw264.7 cells without any LPS treatment
# Method: (§1) The mouse inflammatory cytokines TNFα, MCP-1, IL-10 and IL-6 were quantified using a Cytometric Beads Array (CBA) detection kit (BD Biosciences, USA). This study was performed in triplicate.
# This confirms that the developed nanoparticles are suitable for anti-inflammatory treatment as expected.
# IL-6 = experiment: Cytokine release from LPS-treated macrophages: IL-6; assay type: cell-based, mouse; settings: RAW 264.7, LPS 0.1 μg/mL, 24 hours
# Method: (§2) For the cytokine release experiment, the RAW 264.7 cells were seeded in 24-well plates at a cellular density of 4×10^4 cells/well in culture medium and they were left in the incubator for 48 hours to reach 80% confluency. Then, the medium was replaced by fresh medium alone or fresh medium with LPS at 0.1 μg/mL, and the plates were incubated another 3 hours. Afterwards, the “standard” nanoparticles produced by emulsification-solvent evaporation at three concentrations: 1, 10 and 100 μg/mL of DXP and free dexamethasone phosphate at 82 μg/ml, which correspond to 100 μg/ml DXP considering molecular weight ratio, were added to some wells. Culture medium alone was used as negative control and LPS 0.1 μg/mL as positive control.
# (§3) After 24 hours of incubation with the treatments, the supernatants were collected and frozen at −20° C. until the analysis was performed. The cells were detached and counted.
# as §1
# [2] = Pharmacokinetics in plasma after intravenous injection; parameters: species or system mice; settings: male, DBA/lOlaHsd, mouse, in vivo, 12 mg/kg
# Method: Nanoparticles were prepared by emulsion-evaporation as described above and were diluted in PBS to obtain a final concentration of 2.5 mg/ml DXP, which corresponds to 1.55 mg/ml dexamethasone base. […] DXM. DBA/lOlaHsd male mice aged of 9 weeks (Envigo) were divided into two groups. One received the nanoparticle suspension and the other received the control, administration was carried out by intravenous injection in the tail vein at 12 mg/kg eq. DXM. For each group, 11 pharmacokinetic time points were performed with 7 mice per point, from 10 min to 48 hours. Blood sampling was achieved by terminal cardiac puncture using a 25G needle while mice were previously anesthetized with a lethal dose of pentobarbital. Immediately after, blood was centrifuged to recover plasma which was stored at −80° C. For every time point, 5 mice out of 7 underwent organs sampling after cardiac puncture. Liver, spleen, kidneys and lungs were removed and stored at −80° C.
# To achieve quantification of DXM and DXP in plasma, an extraction process was developed. 100 μl of plasma samples were introduced into centrifugation tubes and 100 μl of the internal standart at 4 μg/ml in acetonitrile was added and vortexed during 30 seconds. 3 ml of a mixture chloroform/methanol: 9/1 (v/v) was added and tubes were vortexed vigorously 3 minutes. Centrifugation were performed at 3500 rpm, 30 min. Organic phase was recovered and evaporated using an evaporator under gas flow. Dried molecules were dissolved in 200 μl acetonitrile and this sample was analyzed by HPLC-UV. Calibration curves of DXP and DXM were linear, respectively in the range 0.5-100 μg/ml (R^2=0.9997, y=0.2199x−0.0165) and 0.1-100 μg/ml (R^2=0.9974, y=1.056x+0.1445). Regarding short time points (10 min, 20 min, 40 min), DXP and DXM concentrations were above the linearity range of the calibration curve. A second calibration curve for each molecule was set up, beginning with 50 μl plasma completed to 100 μl with milliQ water. Following stages were the same than previously described. Calibration curves “50 μl plasma” of DXP and DXM were linear, respectively in the range 50-800 μg/ml (R^2=0.9808, y=0.2229x−3.2128) and 20-400 μg/ml (R^2=0.9986, y=0.7178x−0.059). Internal standard was testosterone decanoate for DXP and dexamethasone acetate for DXM quantification.
# TNFα = experiment: Cytokine release from LPS-treated macrophages: TNFα; assay type: cell-based, mouse; settings: RAW 264.7, LPS 0.1 μg/mL, 24 hours; 100 μg/ml DXP or same equivalent concentration (82 μg/ml dexamethasone phosphate)
# Method: as §2, §3, §1
smiles,measurement,setting,value
"C[C@@H]1C[C@H]2[C@@H]3CCC4=CC(=O)C=C[C@]4(C)[C@@]3(F)[C@@H](O)C[C@]2(C)[C@@]1(O)C(=O)COP(=O)(O)O [DSP, dexamethasone sodium phosphate]",induction of pro-inflammatory cytokine release,[1],neither DXP nanoparticles nor free drug induce pro-inflammatory cytokine release
same,IL-6 release,IL-6,No significant reduction
same,AUC0→t,[2],18755 µg·min/mL
same,C0,[2],22.4 µg/mL
same,Clearance,[2],0.0046 mL/min
same,Cmax,[2],22.1 µg/mL
same,MRT,[2],45 h
same,Tmax,[2],0.167 h
same,Vd,[2],12.50 mL
same,plateau of DXM in plasma,[2],around 10 % of the injected dose
same,t1/2,[2],28.8 h
same,TNFα release,TNFα,no effect detected
